Here are results for three molecules from patent US20260272888A1, “WOUND TREATMENT COMPOSITION” (OTSUKA PHARMACEUTICAL CO., LTD., priority 2022, published 2026).

Assay [1] has as its system human keratinocytes. To be noted: NPL 4; cited from earlier work.
For assay [2], the system named is scratch model. To be noted: NPL 4; cited from earlier work.
For assay [3], the system named is SD rat. In words: rat corneal epithelial defect (corneal wound) model. To be noted: for wound area healing rate on Day 2: SD rat corneal epithelial defect, 1% ointment to the eye four times a day, n=5; for healing of the corneal defect wound as compared with the vehicle administration group: n=5, t-test (compound A p<0.05; crisaborole n.s.). The format is in vivo. The source says: Using a male rat (SD rat), a corneal wound was induced as follows. On the day before the start of the test, rats were grouped using a stratified random sampling method based on the body weight. Under isoflurane anesthesia, each conventional rat was anesthetized with a Benoxil ophthalmic solution to the surface of the eye, and then a nonwoven fabric (3 mm in diameter) with 1-heptanol immersed was placed on the central portion of the cornea and allowed to stand for 30 seconds. Thereafter, the surface of the eye was washed with physiological saline, and the corneal epithelium was scratched with a cotton swab and thus carefully peeled to prepare a corneal defect. A 0.5% methylene blue solution was instilled into the eye, and the corneal epithelial defect portion was washed with physiological saline and then photographed, and then an ointment preparation (base alone, 1% compound A-containing ointment, or 1% crisaborole-containing ointment) as a test substance was administered to the eye four times a day (around 8:00, 11:00, 14:00, and 17:00) for three days. After the day following the preparation of the defect wound, photographing of the defect portion and administration of the test substance were repeated.

Assay [4] deals with normal human epidermal keratinocyte (NHEK). In words: scratch assay of epidermic cells with compound solution or conditioned medium from skin fibroblasts. The format is cell-based. To be noted: conditioned medium from normal human dermal fibroblasts cultured 24 hours with compound, 18 hours culture. As for the experimental part: The influence of the compound A on epidermic cells via a skin fibroblast was evaluated. As the epidermic cell and the skin fibroblast used in the evaluation system, a normal human epidermal keratinocyte (NHEK, Kurabo Industries Ltd.) and a normal human dermal fibroblast (NEDF, Kurabo Industries Ltd.) were used. As a reference compound, dexamethasone, which is an anti-inflammatory drug, was used.
Skin fibroblasts (1×10^5 cells/mL) suspended in Dulbecco's Modified Eagle Medium (DMEM) containing 10% (v/v) fetal bovine serum (FBS) were seeded at 1 mL/well in a 12 well plate coated with type I collagen, and cultured for 48 hours. After removal of the culture medium and washing with phosphate buffered saline (PBS), the compound solution was added. As the compound solution, a solution was used that was prepared by mixing dimethyl sulfoxide or a compound (the compound A or dexamethasone) dissolved in dimethyl sulfoxide with a normal human epidermal keratinocyte basal medium (HuMedia-KB2, Kurabo Industries Ltd.) (the final concentration of dimethyl sulfoxide was 0.1% [v/v]). After completion of the culture for 24 hours, the conditioned medium was collected.
Epidermic cells (6×10^5 cells/mL) suspended in HuMedia-KB2 were seeded at 100 μL/well in ImageLock 96-well Plate (Sartorius AG) coated with type I collagen, and cultured for 4 hours. […]

Assay [5] deals with SD rat. In words: rat oral ulcer model induced by cauterization. The assay is classed as in vivo. To be noted: for oral ulcer area on Day 8: 1 mass % ointment 0.05 mL twice a day for 5 days from Day 3, Mean±S.E., n=6, vehicle 20.4±2.3 mm^2; for reduction in the oral ulcer area as compared with the vehicle administration group: 1 mass % ointment twice a day for 5 days, Day 8, n=6, t-test (compound A p<0.05; crisaborole n.s.). From the text:
Using a male rat (SD rat), an oral ulcer was initiated by cauterization as follows. That is, conventional rats were anesthetized by isoflurane inhalation anesthesia and then placed on their back, and while the upper jaw and the lower jaw of each rat were opened using a rib retractor to take a view, a monopolar having a tip diameter of […] was applied to the central portion of the left oral mucosa, and the portion was cauterized in a circular shape (diameter: 3 to 4 mm) for about 10 to 20 seconds at a set output of 20 to induce an oral ulcer. After the cauterization, the rat was returned to a breeding cage and naturally awakened.
The day of oral ulcer induction was defined as the start day (Day 0). Two days after the oral ulcer induction (Day 2), the rats were grouped using a stratified random sampling method based on the body weight. From 3 days after the initiation of an oral ulcer by cauterization (Day 3), an ointment preparation containing 1 mass % of a test substance or an ointment base alone was orally administered at a dose of 0.05 mL twice a day (around 8:00 and 16:00) for 5 days. (As the compound A 1%, Moizerto (registered trademark) ointment 1% was used. The crisaborole 1% was prepared using a formula in which Moizerto (registered trademark) ointment 1% as the compound A was replaced by crisaborole.) Specifically, a rat anesthetized by isoflurane inhalation was laid down in a left side position, and the ointment preparation was administered to the left cheek where an ulcer was prepared in a state where the oral cavity was opened using tweezers or a rib retractor.

The subject of assay [6] is db/db mice. Kind of assay: wound model using diabetic (db/db) mouse, circular defect wounds of the back skin. The assay is classed as in vivo. To be noted: for healing promoting action as compared with the vehicle administration group (area of defect portions): ointment applied to defect wounds once daily for 10 days, compound A groups 1%, 2%, p<0.01 for compound A, N=6; for course of the area of the defect portions (start of healing): ointment once daily for 10 days, compound A 1%, 2% groups, crisaborole increase on second day in the 2% group, vehicle decreased from the fourth day. As for the experimental part: The compound A or crisaborole was administered to db/db mice, which are spontaneously diabetic models, for 10 days, and the influence on wound healing was examined by analyzing the wound area.
Before start of the test, the db/db mice were grouped using the HbA1c blood concentration as an index, and shaved from the back to the abdomen. On the test start day, the back skin was punched using a biopsy punch (φ6 mm) under isoflurane anesthesia, and thus two circular defect wounds were prepared. The defect portions were photographed, and then an ointment preparation (vehicle [30% medium chain fatty acid triglyceride-containing white petrolatum], compound A or crisaborole) as a test substance was applied to the defect portions and covered with a dressing (Tegaderm, 3M). After the day following the preparation of the defect wounds, removal of the dressing, photographing of the defect portions (once every two days), administration of the test substance, and covering with a dressing were repeated (once daily for 10 days).

The test system of assay [7] is normal human corneal epithelial cell (HCEC-2). Kind of assay: scratch assay of corneal epithelial cells with compound solution or conditioned medium from keratocytes. The format is cell-based. To be noted: HCEC-2 scratch wound, conditioned medium from normal human keratocytes cultured 24 hours with compound, 20 hours culture. As for the experimental part: The influence of the compound A on corneal epithelial cells via a keratocyte was evaluated. As the corneal epithelial cell and the keratocyte used in the evaluation system, a normal human corneal epithelial cell (HCEC-2, Kurabo Industries Ltd.) and a normal human keratocyte (EK, Cosmo Bio Co., Ltd.) were used.
Keratocytes (2×10^5 cells/mL) suspended in a fibroblast culture medium (Fibroblast Medium, Cosmo Bio Co., Ltd.) were seeded at 1 mL/well in a 12 well plate coated with poly-L-lysine, and cultured overnight. After removal of the culture medium and washing with normal human corneal epithelial cell basal medium (OcuLife BM, Kurabo Industries Ltd.), the compound solution was added. As the compound solution, a solution was used that was prepared by mixing dimethyl sulfoxide or the compound A dissolved in dimethyl sulfoxide with OcuLife BM (the final concentration of dimethyl sulfoxide was 0.1% [v/v]). After completion of the culture for 24 hours, the conditioned medium was collected.
Corneal epithelial cells (6×10^5 cells/mL) suspended in OcuLife BM were seeded at 100 μL/well in ImageLock 96-well Plate (Sartorius AG) coated with type I collagen, and cultured for 4 hours. Each well was scratched using a Wound Maker (trademark) tool (Sartorius AG) to prepare an initial scratch wound area in which no cells were present. […]

[8] abbreviates: SD rat, 1% ointment four times a day.

On to `CS(=O)(=O)Nc1ccc(C(=O)O[C@@H](Cc2c(Cl)c[n+]([O-])cc2Cl)c2ccc(OC(F)F)c(OCC3CC3)c2)cc1OCC1CC1` [CHF6001], for which the “growth of human keratinocytes” value in assay [1] is given as “suppresses growth of human keratinocytes”. Also, the “re-epithelialization in a scratch model after treatment” value in assay [2] is “re-epithelialization is decreased”.

As to `CCOc1ccccc1C(=O)NCc1coc(-c2ccc(OC(F)F)c(OC(C)C)c2)n1` [compound A, N-({2-[4-(difluoromethoxy)-3-(propan-2-yloxy)phenyl]-1,3-oxazol-4-yl}methyl)-2-ethoxybenzamide], the “wound area healing rate on Day 2” value in assay [3] is listed as 100%. The “healing of the corneal defect wound as compared with the vehicle administration group” value in assay [3] (setting [8]) is “a significant healing promoting action was confirmed”. Besides, the “time after preparation of the defect wound from which the defect portion area rapidly decreased” value in assay [3] (SD rat, 1% ointment four times a day, vehicle apparent healing started on Day 2) was 8 h. The “migration of the epidermic cells (wound confluence)” value in assay [4] is reported as “promoted migration of the epidermic cells via the skin fibroblasts”. Moreover, in assay [5], the “oral ulcer area on Day 8” value came to 13.1±1.3 mm^2 and the “reduction in the oral ulcer area as compared with the vehicle administration group” value is given as “significant reduction in the oral ulcer area was observed”. Also, in assay [6], the “healing promoting action as compared with the vehicle administration group (area of defect portions)” value was “a healing promoting action was confirmed” and the “course of the area of the defect portions (start of healing)” value is “rapidly decreased from the second day”. Besides, the “migration of the corneal epithelial cells (wound confluence)” value in assay [7] was “promoted migration of the corneal epithelial cells via the keratocytes”.

Turning to `N#Cc1ccc(Oc2ccc3c(c2)COB3O)cc1` [crisaborole, reference compound], in assay [3], the “wound area healing rate on Day 2” value worked out at 81.6%. In addition, the “healing of the corneal defect wound as compared with the vehicle administration group” value in assay [3] (setting [8]) is listed as “healing was not completed”. Further, in assay [5], the “oral ulcer area on Day 8” value stood at 18.3±2.7 mm^2 and the “reduction in the oral ulcer area as compared with the vehicle administration group” value is given as “significant reduction in the oral ulcer area was not observed”. In addition, in assay [6], the “healing promoting action as compared with the vehicle administration group (area of defect portions)” value was “a significant healing promoting action was not observed”; the “course of the area of the defect portions (start of healing)” value was “increased on the second day (in the 2% group) and then gradually decreased from the fourth day”.
